Laboratory results as given in patent publication US20260069581A1, “METHODS AND COMPOSITIONS FOR CANCER THERAPY” (OHIO STATE INNOVATION FOUNDATION, priority 2020, published 2026).

Key:
[1] = system: MOLM13 and Kasumi-1 cell lines; test: Annexin/PI flow cytometry apoptosis of shRNA-stable cells treated with KPT-9274; assay type: cell-based, human; conditions: KPT-9274 at sublethal IC20 dose, 48 hour
From the text: FIGS. 2A-2M show show representative data for genetic depletion of HDAC8 or SIRT6 increases vulnerability of AML cell lines to KPT-9274 treatment. FIGS. 2A-2D show data for knockout efficiency of CDS- and 3′UTR-targeting shRNAs in MOLM13 and Kasumi-1 cells as assessed with Western blotting (FIGS. 2A, 2D) with GAPDH as a loading control. Densitometric quantification of protein band intensity is shown (n=2) in FIGS. 2B, 2E. FIGS. 2E-2H show representative data for depletion of HDAC8 or SIRT6 (as indicated in graphs) and sensitization of AML cell lines to KPT-9274 treatment. Dose-response curves of shRNA-stable MOLM13 and Kasumi-1 cells for 24-hour and 48-hour treatments are plotted. Cell viability was measured with MTS. […] Scrambled or gene-targeting shRNA-stable MOLM13 or Kasumi-1 cells were treated with IC20 dose of KPT-9274 for 48 hour and stained with Annexin/PI for flow cytometry analysis. Data are shown as mean±SEM of % population from duplicates. FIGS. 2K-2L show representative data that KPT-9274 attenuates AML self-renewal and induces myeloid differentiation in HDAC8 or SIRT6-depleted cells. Quantification of the number of colonies formed by shRNA-stable Kasumi-1 and MOLM13 cells in the presence or absence of KPT-9274 in CFU assays. Indicated number of cells were seeded into Methocult and colonies were counted and replated by a double-blind approach after 7 days. […]

[2] = system: shRNA-stable Kasumi-1 and MOLM13 cells; test: CFU serial replating assay of shRNA-stable cells with KPT-9274; assay type: cell-based, human
From the text: FIGS. 2A-2M show show representative data for genetic depletion of HDAC8 or SIRT6 increases vulnerability of AML cell lines to KPT-9274 treatment. FIGS. 2A-2D show data for knockout efficiency of CDS- and 3′UTR-targeting shRNAs in MOLM13 and Kasumi-1 cells as assessed with Western blotting (FIGS. 2A, 2D) with GAPDH as a loading control. Densitometric quantification of protein band intensity is shown (n=2) in FIGS. 2B, 2E. FIGS. 2E-2H show representative data for depletion of HDAC8 or SIRT6 (as indicated in graphs) and sensitization of AML cell lines to KPT-9274 treatment. Dose-response curves of shRNA-stable MOLM13 and Kasumi-1 cells for 24-hour and 48-hour treatments are plotted. Cell viability was measured with MTS. […] Scrambled or gene-targeting shRNA-stable MOLM13 or Kasumi-1 cells were treated with IC20 dose of KPT-9274 for 48 hour and stained with Annexin/PI for flow cytometry analysis. Data are shown as mean±SEM of % population from duplicates. FIGS. 2K-2L show representative data that KPT-9274 attenuates AML self-renewal and induces myeloid differentiation in HDAC8 or SIRT6-depleted cells. Quantification of the number of colonies formed by shRNA-stable Kasumi-1 and MOLM13 cells in the presence or absence of KPT-9274 in CFU assays. Indicated number of cells were seeded into Methocult and colonies were counted and replated by a double-blind approach after 7 days. Results are shown as mean±SEM of duplicates. *p<0.05. **p<0.01. […] For each condition, images were randomly taken from 6-12 fields of view. Scale bar=50 μm.
Colony-forming unit (CFU) assays. Age-matched cryopreserved primary cells from bone marrow and apheresis of AML patients with various co-mutations and CD34^+ healthy bone marrow cells were acquired from Ohio State University Comprehensive Cancer Center Leukemia Tissue Bank. […] Formed colonies were counted blindly after 7-14 days and re-plated at 10,000 cells/well. The images of colonies were captured with Echo revolving microscope. The images of Giemsa staining of cytospin preparations were acquired by CX43 Olympus inverted microscope. […]

[3] = system: SIRT6-depleted cells; test: Phospho-H2A.X staining in shSIRT6 cells with KPT-9274; assay type: cell-based; conditions: SIRT6-depleted cells compared with scrambled control, in the presence of KPT-9274
Protocol: (§1) Thereafter, cells were fixed, permeabilized and stained with BV421 mouse anti-H2A.X (pS139) (Clone N1-431). Stained cells were analyzed by flow cytometry. Results are shown as mean±SEM of duplicates. *p<0.05. N.S.: not significant. […] Results are shown as mean±SEM of duplicates. *p<0.05. […] MOLM13 cells were treated with vehicle control, 0.4 μM or 0.8 μM AR-42 alone, 0.1 μM or 0.25 μM KPT-2974 alone and drug combination for 24 hours before being subject to Western blotting analysis of HR, NHEJ and ATM markers. GAPDH served as loading control. Results are representative of two independent experiments. In the FIG. the treatment concentrations, protein detected in the given Western blot, and molecular weight of the protein detected are as shown in the figure. […] Scrambled or shHDAC8-transduced MOLM13 cells were treated with vehicle, 0.1 μM or 0.25 μM KPT-2974 before being subject to immunoblotting analysis of DNA repair targets. GAPDH serves as loading control. Results are representative of two independent experiments. In the FIG. the treatment concentrations, protein detected in the given Western blot, and molecular weight of the protein detected are as shown in the figure. […] PAPR1 was immunoprecipitated and mono-ADP-ribosylation was detected by western blotting. […]
(§2) To elucidate the mechanism of the synergism between shSIRT6 and KPT-9274, the accumulation of phosph-H2A.X was measured. […]

[4] = system: PARP1; test: co-IP and western blotting of PARP1 mono-ADP-ribosylation; assay type: cell-based; conditions: eradicated by knockdown of SIRT6
Protocol: as §1, §2

**Q.** Which results are given for `Nc1ccc(/C=C/C(=O)NCc2cc3cc(-c4ccc(C(=O)N5CCC(F)(F)CC5)cc4)cc(-c4ccc(F)cc4)c3o2)cn1` [KPT-9274, (E)-3-(6-aminopyridin-3-yl)-N-[[5-[4-(4,4-difluoropiperidine-1-carbonyl)phenyl]-7-(4-fluorophenyl)-1-benzofuran-2-yl]methyl]prop-2-enamide]?
**A.** percentage of apoptotic cells ([1]; HDAC8 depletion): significantly increase; apoptosis of AML cells ([1]; SIRT6 depletion): enhance apoptosis; colony formation and long-term self-renewal ([2]; HDAC8 or SIRT6-depleted MOLM13 and Kasumi-1 cells): suppressed colony formation; cell differentiation (Giemsa staining of cytospin preparations) ([2]; KPT-9274 with depletion of HDAC8 or SIRT6, cells derived from CFU assays): cooperatively differentiated AML cells; colony numbers vs vehicle control ([2]; scramble groups, sublethal doses of KPT-9274): comparable; DNA damage, phospho-H2A.X staining [3]: increased phospho-H2A.X staining; mono-ADP-ribosylation of PARP1 [4]: enhanced
